Read-outs that look alike come from different tables or passages of the source.
Key:
HIV1 strain NL4-3 = assay type: cell-based; details: normalized mean of HIV1 replication readout
HCV replicon = assay type: cell-based; details: for HCV Norm MEAN: normalized mean of HCV replicon readout
[1] = tested on: F. novicida (strain U112); assay type: cell-based
influenza A H1N1 virus = details: 48 hr post-treatment, A549
EBV = details: normalized mean of EBV replication readout

Substance	HIV1 Norm MEAN (HIV1 strain NL4-3; peptide screen)	HCV Norm MEAN (HCV replicon; peptide screen)	Francisella novicida Norm AUC [1]	Neuraminidase activity normalized to vehicle (influenza A H1N1 virus; 200 µM peptide)	Neuraminidase activity normalized to vehicle (influenza A H1N1 virus; 0,823 µM peptide)	Neuraminidase activity normalized to vehicle (influenza A H1N1 virus; 22,2 µM peptide)	Neuraminidase activity normalized to vehicle (influenza A H1N1 virus; 2,4691 µM peptide)	Neuraminidase activity normalized to vehicle (influenza A H1N1 virus; 7,4074 µM peptide)	Neuraminidase activity normalized to vehicle (influenza A H1N1 virus; 66,6667 µM peptide)	EBV Norm MEAN (EBV; peptide screen)	HIV1 Norm MEAN (HIV1 strain NL4-3)	HCV Norm MEAN (HCV replicon)	EBV Norm MEAN (EBV)	activity in HCV screen (in words) (HCV replicon; 20 µM peptide, Huh7, replicon luciferase)
SAPCLLKLSTTLLCLEI [CPEP124]	14.9843	1.253	0.6911	0,1059	1,0611	0,6181	0,9657	1,0354	0,1507	0.5543				
FPESLIL [CPEP76]			0.9207	0,7678	0,7594	0,787	0,7722	0,7943	0,7797		0.9579	0.1881	1.102	
ELLSGLQEWL [CPEP85]			1.212	0,9118	0,9858	0,8356	0,9371	0,8683	0,8029		0.5625	0.7957	1.35	
CPEP63: peptide of the viral peptide library; sequence page not shown (KARHKRRNRSSRS)			1.1166	0,8323	0,6161	0,9172	1	0,9177	0,9488		0.7086	0.5995	1.249	
CPEP142: peptide of the viral peptide library; sequence page not shown (LGIVCPICSQKP)			1.819	0,8923	0,9385	0,9689	0,9538	0,9445	1,085		0.603	0.308	1.863	
QILVESPTVLESGTKE [CPEP80]	0.6346	0.9076	0.9366	0,8685	1,0444	1,1492	1,0137	1,0974	0,9708	0.8761				
EALKKALRRHRFLWQRR [CPEP73]	0.2962	0.02817	1.711	0,1338	1,11	1,1241	0,9956	1,1329	0,4622	2.469				
EPLDLPPIIQ [CPEP45]			1.0611	0,7336	0,9966	0,8381	0,9443	0,9188	0,7574		0.3392	1.078	0.6832	
PVQLSYYD [CPEP144]			1.621	0,7318	1,0036	0,9081	0,8026	0,9626	0,8536		1.139	0.1325	1.072	peptide inhibiting HCV
FVKSNWGLF [CPEP101]			1.6479	0,7463	1,0136	0,9003	0,9061	0,9057	0,8948		0.9706	0.5497	1.466	
WKSKKTP [CPEP78]			0.7597	0,663	0,9859	0,8841	0,8283	0,8644	0,9037		1.618	0.1248	1.01	
PDSDPQIPPPYVEPTA [CPEP138]	0.606	1.015	0.9657	1,0087	1,063	1,1918	0,9934	1,0804	1,0379	0.9708				
LTMVI [CPEP12]			1.651	0,732	0,7557	0,8312	0,7112	0,7657	0,8968		1.936	0.1977	1.608	
YASIL [CPEP21]			0.5259	0,9829	0,8221	0,8963	0,8753	0,7869	1,0057		2.264	0.1905	1.459	
SKMQL [CPEP150]			0.5976	1,0149	0,912	0,9305	0,7746	0,8703	0,9907		1.8032	0.2118	1.198	

Source: publication PMC10835127, “Viruses traverse the human proteome through peptide interfaces that can be biomimetically leveraged for drug discovery” (Proceedings of the National Academy of Sciences of the …, 2024)
